This is an account of results in ChEMBL document CHEMBL3351986, “Probing linker design in citric acid-ciprofloxacin conjugates” (2014).

Values after ≈ are worked out from the molar mass of the structure shown. Active and inactive are the calls of the source. A value given as a limit tells only on which side of the number the result lay.

The first assay has as its system Staphylococcus aureus. The experiment in a line: Antimicrobial activity against Staphylococcus aureus NCTC 13142 after 18 hrs by micro dilution method. Format: functional. As to conditions: NCTC 13142, 18 h.
Broadly, the MIC is the smallest concentration in the dilution series that meets the test's criterion for growth inhibition. `O=C(O)c1cn(C2CC2)c2cc(N3CCNCC3)c(F)cc2c1=O` [CIPROFLOXACIN] yielded an MIC of 0.5 µg/mL (≈ 1.51 µM).

The subject of the next assay is Staphylococcus aureus. Put plainly: Antimicrobial activity against Staphylococcus aureus HG-1 after 18 hrs by micro dilution method. Format: functional. As to conditions: HG-1, 18 h.
The compound `O=C(O)c1cn(C2CC2)c2cc(N3CCNCC3)c(F)cc2c1=O` [CIPROFLOXACIN] came in with a minimal inhibitory concentration (MIC) of more than 36 µg/mL.

A further assay relates to Staphylococcus aureus. The experiment in a line: Antimicrobial activity against Staphylococcus aureus (Oxford) NCTC 6571 after 18 hrs by micro dilution method. Format: functional. As to conditions: (Oxford) NCTC 6571, 18 h.
Turning to `O=C(O)c1cn(C2CC2)c2cc(N3CCNCC3)c(F)cc2c1=O` [CIPROFLOXACIN], the MIC is 0.25 µg/mL (≈ 0.754 µM).

For another assay, the system named is Staphylococcus aureus. Put plainly: Antimicrobial activity against Staphylococcus aureus NCTC 13143 after 18 hrs by micro dilution method. The assay is classed as functional. As to conditions: NCTC 13143, 18 h.
For `O=C(O)c1cn(C2CC2)c2cc(N3CCNCC3)c(F)cc2c1=O` [CIPROFLOXACIN], the MIC is more than 36 µg/mL.

The subject of the next assay is Staphylococcus aureus. Put plainly: Antimicrobial activity against Staphylococcus aureus BIG 52 after 18 hrs by micro dilution method. The assay is classed as functional. As to conditions: BIG 52, 18 h.
Turning to `O=C(O)c1cn(C2CC2)c2cc(N3CCNCC3)c(F)cc2c1=O` [CIPROFLOXACIN], the lowest concentration to inhibit growth (MIC) was 0.5 µg/mL (≈ 1.51 µM).

The test system of the next assay is Staphylococcus epidermidis. Put plainly: Antimicrobial activity against Staphylococcus epidermidis NCTC 11047 after 18 hrs by micro dilution method. Format: functional. As to conditions: NCTC 11047, 18 h.
As for `O=C(O)c1cn(C2CC2)c2cc(N3CCNCC3)c(F)cc2c1=O` [CIPROFLOXACIN], the MIC turned out to be 0.125 µg/mL (≈ 0.377 µM).

The subject of a further assay is Staphylococcus epidermidis. Put plainly: Antimicrobial activity against Staphylococcus epidermidis NCTC 2749 after 18 hrs by micro dilution method. As to conditions: NCTC 2749, 18 h. Format: functional.
As to `O=C(O)c1cn(C2CC2)c2cc(N3CCNCC3)c(F)cc2c1=O` [CIPROFLOXACIN], the minimum inhibitory concentration (MIC) amounted to 0.25 µg/mL (≈ 0.754 µM).

For a further assay, the system named is Staphylococcus haemolyticus. Put plainly: Antimicrobial activity against Staphylococcus haemolyticus NCTC 11042 after 18 hrs by micro dilution method. The assay is classed as functional. As to conditions: NCTC 11042, 18 h.
`O=C(O)c1cn(C2CC2)c2cc(N3CCNCC3)c(F)cc2c1=O` [CIPROFLOXACIN]: the MIC is 0.125 µg/mL (≈ 0.377 µM).

In the next assay the test system is Escherichia coli. Put plainly: Antimicrobial activity against Escherichia coli BIG 0046 after 18 hrs by micro dilution method. As to conditions: BIG 0046, 18 h. The assay is classed as functional.
Turning to `O=C(O)c1cn(C2CC2)c2cc(N3CCNCC3)c(F)cc2c1=O` [CIPROFLOXACIN], the MIC is more than 36 µg/mL.

A further assay concerns Serratia marcescens. Put plainly: Antimicrobial activity against Serratia marcescens BIG 11 NCTC 1377 after 18 hrs by micro dilution method. As to conditions: BIG 11 NCTC 1377, 18 h. The assay is classed as functional.
With `O=C(O)c1cn(C2CC2)c2cc(N3CCNCC3)c(F)cc2c1=O` [CIPROFLOXACIN], the MIC was 0.06 µg/mL (≈ 0.181 µM).

Another assay has as its system Burkholderia cepacia. Put plainly: Antimicrobial activity against Burkholderia cepacia BIG 9 NCTC 10744 after 18 hrs by micro dilution method. The assay is classed as functional. As to conditions: BIG 9 NCTC 10744, 18 h.
Compound `O=C(O)c1cn(C2CC2)c2cc(N3CCNCC3)c(F)cc2c1=O` [CIPROFLOXACIN] returned an MIC of 0.5 µg/mL (≈ 1.51 µM).

Another assay has as its system Burkholderia cepacia. Put plainly: Antimicrobial activity against Burkholderia cepacia BIG 117 after 18 hrs by micro dilution method. Format: functional. As to conditions: BIG 117, 18 h.
Consider `O=C(O)c1cn(C2CC2)c2cc(N3CCNCC3)c(F)cc2c1=O` [CIPROFLOXACIN], for which the lowest concentration to inhibit growth (MIC) was 1 µg/mL (≈ 3.02 µM).

The test system of a further assay is Burkholderia cepacia. The experiment in a line: Antimicrobial activity against Burkholderia cepacia BIG 118 after 18 hrs by micro dilution method. Format: functional. As to conditions: BIG 118, 18 h.
With `O=C(O)c1cn(C2CC2)c2cc(N3CCNCC3)c(F)cc2c1=O` [CIPROFLOXACIN], the MIC turned out to be 0.25 µg/mL (≈ 0.754 µM).

In another assay the test system is Burkholderia cepacia. The experiment in a line: Antimicrobial activity against Burkholderia cepacia BIG 119 after 18 hrs by micro dilution method. As to conditions: BIG 119, 18 h. The assay is classed as functional.
Compound `O=C(O)c1cn(C2CC2)c2cc(N3CCNCC3)c(F)cc2c1=O` [CIPROFLOXACIN] yielded an MIC of 4 µg/mL (≈ 12.1 µM).

The next assay concerns Burkholderia cepacia. The experiment in a line: Antimicrobial activity against Burkholderia cepacia BIG 120 after 18 hrs by micro dilution method. Format: functional. As to conditions: BIG 120, 18 h.
Consider `O=C(O)c1cn(C2CC2)c2cc(N3CCNCC3)c(F)cc2c1=O` [CIPROFLOXACIN], for which the MIC amounted to 2 µg/mL (≈ 6.04 µM).

For the next assay, the system named is Burkholderia cepacia. Put plainly: Antimicrobial activity against Burkholderia cepacia BIG 121 after 18 hrs by micro dilution method. The assay is classed as functional. As to conditions: BIG 121, 18 h.
Consider `O=C(O)c1cn(C2CC2)c2cc(N3CCNCC3)c(F)cc2c1=O` [CIPROFLOXACIN], for which 8 µg/mL (≈ 24.1 µM) was the least that counted as inhibitory (MIC).

Another assay relates to Stenotrophomonas maltophilia. The experiment in a line: Antimicrobial activity against Stenotrophomonas maltophilia N1127 after 18 hrs by micro dilution method. As to conditions: N1127, 18 h. The assay is classed as functional.
The compound `O=C(O)c1cn(C2CC2)c2cc(N3CCNCC3)c(F)cc2c1=O` [CIPROFLOXACIN] came in with an MIC of 2 µg/mL (≈ 6.04 µM).

A further assay has as its system Stenotrophomonas maltophilia. The experiment in a line: Antimicrobial activity against Stenotrophomonas maltophilia N1124 after 18 hrs by micro dilution method. Format: functional. As to conditions: N1124, 18 h.
`O=C(O)c1cn(C2CC2)c2cc(N3CCNCC3)c(F)cc2c1=O` [CIPROFLOXACIN] had an MIC of 4 µg/mL (≈ 12.1 µM).

A further assay deals with Stenotrophomonas maltophilia. The experiment in a line: Antimicrobial activity against Stenotrophomonas maltophilia N1119 after 18 hrs by micro dilution method. The assay is classed as functional. As to conditions: N1119, 18 h.
For `O=C(O)c1cn(C2CC2)c2cc(N3CCNCC3)c(F)cc2c1=O` [CIPROFLOXACIN], the MIC stood at 1 µg/mL (≈ 3.02 µM).

Test system in another assay: not listed separately
The experiment in a line: Inhibition of DNA gyrase (unknown origin) assessed as reduction in supercoiled form of DNA at 5 to 20 uM using ethidium bromide staining by gel electrophoresis.
Conditions: not given
Consider `O=C(O)c1cn(C2CC2)c2cc(N3CCNCC3)c(F)cc2c1=O` [CIPROFLOXACIN], for which the inhibition result was “Active”.
